Test results reported in US6358885B1, “Substituted phenylheterocyclic herbicides” (Mississippi State University, priority 1992, dated 2002).

Legend:
broadleaf signalgrass = assay: Test G preemergence/postemergence greenhouse plant response rating 0 to 100; type: in vivo, Brachiaria plantaginea; settings: 0 to 100 scale
Procedure, shortened: (§1)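 Pre- and postemergence treatments used compound in non-phytotoxic solvent on potted greenhouse plants grown from seed, rhizome or plant part. Postemergence plants were at the 2–4 leaf stage; damage was assessed by eye versus untreated pots after 13–21 days.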

peanut = assay: as above; type: in vivo, Arachis hypoagaea; settings: 0 to 100 scale
Procedure, shortened: as §1

annual bluegrass = assay: as above; type: in vivo, Poa annua; settings: 0 to 100 scale
Procedure, shortened: as §1

dallisgrass = assay: as above; type: in vivo, Paspalum dilatatum; settings: 0 to 100 scale
Procedure, shortened: as §1

common ragweed = assay: as above; type: in vivo, Ambrosia elatior; settings: 0 to 100 scale
Procedure, shortened: as §1

pitted morningglory = assay: as above; type: in vivo, Ipomoea lacunosa; settings: 0 to 100 scale
Procedure, shortened: as §1

itchgrass = assay: as above; type: in vivo, Rottboellia exaltata; settings: 0 to 100 scale
Procedure, shortened: as §1

common purslane = assay: as above; type: in vivo, Portulaca oleracea; settings: 0 to 100 scale
Procedure, shortened: as §1

smooth crabgrass = assay: as above; type: in vivo, Digitaria ischaemum; settings: 0 to 100 scale
Procedure, shortened: as §1

sandbur = assay: as above; type: in vivo, Cenchrus echinatus; settings: 0 to 100 scale
Procedure, shortened: as §1

guineagrass = assay: as above; type: in vivo, Panicum maximum; settings: 0 to 100 scale
Procedure, shortened: as §1

goosegrass = assay: as above; type: in vivo, Eleusine indica; settings: 0 to 100 scale
Procedure, shortened: as §1

johnsongrass = assay: as above; type: in vivo, Sorghum halepense; settings: 0 to 100 scale
Procedure, shortened: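 Visual injury scores, taken 13–21 d after spraying and judged against untreated pots; dash = not tested. Single-species greenhouse pots; test chemical dissolved in non-phytotoxic solvent. Pre: applied ≤1 d post-planting.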

speedwell = assay: Test C preemergence/postemergence greenhouse plant response rating 0 to 100; type: in vivo, Veronica persica; settings: for Plant response rating Speedwell: 0 to 100 scale
Source text: The compounds evaluated in this test were formulated in a non-phytoxic solvent and applied to the soil surface before plant seedlings emerged (preemergence application), to water that covered the soil surface (flood application), and to plants that were in the one-to-four leaf stage (postemergence application). A sandy loam soil was used for the preemergence and postemergence tests, while a silt loam soil was used in the flood test. Water depth was approximately 2.5 cm for the flood test and was maintained at this level for the duration of the test. Plant species in the preemergence and postemergence tests consisted of barley (Hordeum vulgare), bedstraw (Galium aparine), blackgrass (Alopecurus myosuroides), chickweed (Stellaria media), corn (Zea mays), cotton (Gossypium hirsutum), crabgrass (Digitaria sanguinalis), downy brome (Bromus tectorum), giant foxtail (Setaria faberii), lambsquarters (Chenopodium album), morningglory (Ipomoea hederacea), pigweed ([…]), rape (Brassica napus), ryegrass (Lolium multiflorum), sorghum (Sorghum bicolor), soybean (Glycine max), speedwell (Veronica persica), sugar beet (Beta vulgaris), velvetleaf (Abutilon theophrasti), wheat (Triticum aestivum), wild buckwheat (Polygonum convolvulus), and wild oat (Avena fatua). All plant species were planted one day before application of the compound for the preemergence portion-of this test. Plantings of these species were adjusted to produce plants of appropriate size for the post-emergence portion of the test. […] All plant species were grown using normal greenhouse practices. Visual evaluations of injury expressed on treated plants, when compared to untreated controls, were recorded approximately fourteen to twenty one days after application of the test compound. […] A dash (-) response means no test result.

yellow nutsedge = assay: Test G preemergence/postemergence greenhouse plant response rating 0 to 100; type: in vivo, Cyperus esculentus; settings: Rate 125 g/ha, 0 to 100 scale
Procedure, shortened: as §1

alfalfa = assay: as above; type: in vivo, Medicago ativa; settings: 0 to 100 scale
Procedure, shortened: as §1

purple nutsedge = assay: as above; type: in vivo, Cyperus rotundus; settings: Rate 125 g/ha, 0 to 100 scale
Procedure, shortened: as §1

C#CCOc1cc(-c2nn3c(c2Br)CCCC3)c(F)cc1Cl [Compound 26]
Plant response rating, Brdlf Sgnlgrass (broadleaf signalgrass; POSTEMERGENCE, Rate 125 g/ha): 0 | Plant response rating, Brdlf Sgnlgrass (broadleaf signalgrass; POSTEMERGENCE, Rate 250 g/ha): 0 | Plant response rating, Brdlf Sgnlgrass (broadleaf signalgrass; PREEMERGENCE, Rate 125 g/ha): 0 | Plant response rating, Brdlf Sgnlgrass (broadleaf signalgrass; PREEMERGENCE, Rate 250 g/ha): 0 | Plant response rating, Peanuts (peanut; POSTEMERGENCE, Rate 125 g/ha): 0 | Plant response rating, Peanuts (peanut; POSTEMERGENCE, Rate 250 g/ha): 0 | Plant response rating, Peanuts (peanut; PREEMERGENCE, Rate 250 g/ha): 0 | Plant response rating, Ann Bluegrass (annual bluegrass; POSTEMERGENCE, Rate 125 g/ha): 0 | Plant response rating, Ann Bluegrass (annual bluegrass; POSTEMERGENCE, Rate 250 g/ha): 0 | Plant response rating, Ann Bluegrass (annual bluegrass; PREEMERGENCE, Rate 125 g/ha): 0 | Plant response rating, Ann Bluegrass (annual bluegrass; PREEMERGENCE, Rate 250 g/ha): 0 | Plant response rating, Dallisgrass (dallisgrass; POSTEMERGENCE, Rate 125 g/ha): 0 | Plant response rating, Dallisgrass (dallisgrass; POSTEMERGENCE, Rate 250 g/ha): 0 | Plant response rating, Dallisgrass (dallisgrass; PREEMERGENCE, Rate 125 g/ha): 20 | Plant response rating, Dallisgrass (dallisgrass; PREEMERGENCE, Rate 250 g/ha): 20 | Plant response rating, Cmn Ragweed (common ragweed; POSTEMERGENCE, Rate 125 g/ha): 80 | Plant response rating, Cmn Ragweed (common ragweed; POSTEMERGENCE, Rate 250 g/ha): 100 | Plant response rating, Cmn Ragweed (common ragweed; PREEMERGENCE, Rate 125 g/ha): 0 | Plant response rating, Cmn Ragweed (common ragweed; PREEMERGENCE, Rate 250 g/ha): 20 | Plant response rating, Pit Morninglory (pitted morningglory; POSTEMERGENCE, Rate 125 g/ha): 0 | Plant response rating, Pit Morninglory (pitted morningglory; POSTEMERGENCE, Rate 250 g/ha): 40 | Plant response rating, Pit Morninglory (pitted morningglory; PREEMERGENCE, Rate 125 g/ha): 0 | Plant response rating, Pit Morninglory (pitted morningglory; PREEMERGENCE, Rate 250 g/ha): 20 | Plant response rating, Itchgrass (itchgrass; POSTEMERGENCE, Rate 125 g/ha): 0 | Plant response rating, Itchgrass (itchgrass; POSTEMERGENCE, Rate 250 g/ha): 0 | Plant response rating, Itchgrass (itchgrass; PREEMERGENCE, Rate 125 g/ha): 0 | Plant response rating, Itchgrass (itchgrass; PREEMERGENCE, Rate 250 g/ha): 50 | Plant response rating, Cmn Purslane (common purslane; POSTEMERGENCE, Rate 125 g/ha): 100 | Plant response rating, Cmn Purslane (common purslane; POSTEMERGENCE, Rate 250 g/ha): 90 | Plant response rating, Cmn Purslane (common purslane; PREEMERGENCE, Rate 125 g/ha): 30 | Plant response rating, Cmn Purslane (common purslane; PREEMERGENCE, Rate 250 g/ha): 100 | Plant response rating, Smooth Crabgras (smooth crabgrass; POSTEMERGENCE, Rate 125 g/ha): 0 | Plant response rating, Smooth Crabgras (smooth crabgrass; POSTEMERGENCE, Rate 250 g/ha): 0 | Plant response rating, Smooth Crabgras (smooth crabgrass; PREEMERGENCE, Rate 125 g/ha): 0 | Plant response rating, Smooth Crabgras (smooth crabgrass; PREEMERGENCE, Rate 250 g/ha): 40 | Plant response rating, S. Sandbur (sandbur; POSTEMERGENCE, Rate 125 g/ha): 0 | Plant response rating, S. Sandbur (sandbur; POSTEMERGENCE, Rate 250 g/ha): 0 | Plant response rating, S. Sandbur (sandbur; PREEMERGENCE, Rate 125 g/ha): 0 | Plant response rating, S. Sandbur (sandbur; PREEMERGENCE, Rate 250 g/ha): 0 | Plant response rating, Guineagrass (guineagrass; POSTEMERGENCE, Rate 125 g/ha): 0 | Plant response rating, Guineagrass (guineagrass; POSTEMERGENCE, Rate 250 g/ha): 0 | Plant response rating, Guineagrass (guineagrass; PREEMERGENCE, Rate 125 g/ha): 0 | Plant response rating, Guineagrass (guineagrass; PREEMERGENCE, Rate 250 g/ha): 30 | Plant response rating, Goosegrass (goosegrass; POSTEMERGENCE, Rate 125 g/ha): 0 | Plant response rating, Goosegrass (goosegrass; POSTEMERGENCE, Rate 250 g/ha): 0 | Plant response rating, Goosegrass (goosegrass; PREEMERGENCE, Rate 125 g/ha): 70 | Plant response rating, Goosegrass (goosegrass; PREEMERGENCE, Rate 250 g/ha): 20 | Plant response rating, Johnsongrass (johnsongrass; POSTEMERGENCE, Rate 125 g/ha): 0 | Plant response rating, Johnsongrass (johnsongrass; POSTEMERGENCE, Rate 250 g/ha): 0 | Plant response rating, Johnsongrass (johnsongrass; PREEMERGENCE, Rate 125 g/ha): 0 | Plant response rating, Johnsongrass (johnsongrass; PREEMERGENCE, Rate 250 g/ha): 0 | Plant response rating Speedwell (speedwell; POSTEMERGENCE, 62 g/ha): 100 | Plant response rating Speedwell (speedwell; POSTEMERGENCE, 250 g/ha): 100 | Plant response rating (0 to 100), Speedwell (speedwell; POSTEMERGENCE, Rate 4 g/ha): 90 | Plant response rating Speedwell (speedwell; PREEMERGENCE, 250 g/ha): 100 | Plant response rating (0 to 100), Speedwell (speedwell; PREEMERGENCE, Rate 4 g/ha): 90 | Plant response rating (0 to 100), Speedwell (speedwell; Rate 16 g/ha, POSTEMERGENCE): 100 | Plant response rating (0 to 100), Speedwell (speedwell; Rate 16 g/ha, PREEMERGENCE): 100 | Plant response rating, Yellow Nutsedge (yellow nutsedge; POSTEMERGENCE): 0 | Plant response rating, Yellow Nutsedge (yellow nutsedge; PREEMERGENCE): 0 | Plant response rating, Alfalfa Var. (alfalfa; POSTEMERGENCE, Rate 125 g/ha): 20 | Plant response rating, Alfalfa Var. (alfalfa; POSTEMERGENCE, Rate 250 g/ha): 50 | Plant response rating, Alfalfa Var. (alfalfa; PREEMERGENCE, Rate 125 g/ha): 0 | Plant response rating, Alfalfa Var. (alfalfa; PREEMERGENCE, Rate 250 g/ha): 60 | Plant response rating, Purple Nutsedge (purple nutsedge; POSTEMERGENCE): 0 | Plant response rating, Purple Nutsedge (purple nutsedge; PREEMERGENCE): 0
